Where “and” joins values, the source holds several entries; their conditions need not be identical. Equal values may be shown once. Read-outs that look alike come from different tables or passages of the source.
Molecular target: T1, GPR139 (Homo sapiens, UniProt Q6DWJ6)
T1 sequence (Q6DWJ6 1-353): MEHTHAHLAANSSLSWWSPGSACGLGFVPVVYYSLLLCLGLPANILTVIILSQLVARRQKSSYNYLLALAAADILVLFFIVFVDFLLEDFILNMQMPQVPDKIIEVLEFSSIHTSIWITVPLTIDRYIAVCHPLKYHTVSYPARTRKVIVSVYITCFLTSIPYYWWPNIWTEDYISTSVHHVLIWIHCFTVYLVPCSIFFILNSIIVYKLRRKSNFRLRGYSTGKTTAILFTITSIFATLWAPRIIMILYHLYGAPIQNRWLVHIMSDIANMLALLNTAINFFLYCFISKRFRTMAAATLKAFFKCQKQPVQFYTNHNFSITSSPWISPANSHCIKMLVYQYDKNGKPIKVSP
Test: Ca2+ mobilization assay, agonist mode, stable GPR139-CHOk1 cell line
Type: cell-based
Details: for Emax: normalized to Lundbeck Cmp 1a
Outline: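 Agonist activity of compounds is assessed in stably transfected CHO-K1 cells using the calcium dye Fluo-4 at 37 °C in HEPES-buffered HBSS (pH 7.4). Efficacy is expressed relative to the reference agonist Lundbeck Cmp 1a, set as 100%.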

[1] = Supplementary Table 7, enantiopure compounds, read-out: pEC50, Ca2+ mobilization (converted)
[2] = Supplementary Table 7, read-out: Emax (%), Ca2+ mobilization
[3] = log [Compound] M -5.5, replicate experiments
[4] = log [Compound] M -6.0, replicate experiments
[5] = log [Compound] M -6.5, replicate experiments
[6] = log [Compound] M -7.0, replicate experiments
[7] = log [Compound] M -7.5, replicate experiments
[8] = log [Compound] M -8.0, replicate experiments
[9] = log [Compound] M -8.5, replicate experiments
[10] = log [Compound] M -9.0, replicate experiments
[11] = log [Compound] M -12.0, individual replicates
[12] = log [Compound] M -8.5, individual replicates
[13] = log [Compound] M -9.0, individual replicates
[14] = log [compound] M -4.5, individual replicates
[15] = log [compound] M -5.0, individual replicates
[16] = log [compound] M -5.5, individual replicates
[17] = log [compound] M -6.0, individual replicates
[18] = log [compound] M -6.5, individual replicates
[19] = log [compound] M -7.0, individual replicates
[20] = log [compound] M -7.5, individual replicates
[21] = log [compound] M -8.0, individual replicates

| Compound | EC50 [1] [nM] | Emax [2] [%] | Ca2+ signal (% of Cmp 1a) [3] | Ca2+ signal (% of Cmp 1a) [4] | Ca2+ signal (% of Cmp 1a) [5] | Ca2+ signal (% of Cmp 1a) [6] | Ca2+ signal (% of Cmp 1a) [7] | Ca2+ signal (% of Cmp 1a) [8] | Ca2+ signal (% of Cmp 1a) [9] | Ca2+ signal (% of Cmp 1a) [10] | Ca2+ signal (% of Cmp 1a) [11] | Ca2+ signal (% of Cmp 1a) [12] | Ca2+ signal (% of Cmp 1a) [13] | Ca2+ signal (% of Cmp 1a) [14] | Ca2+ signal (% of Cmp 1a) [15] | Ca2+ signal (% of Cmp 1a) [16] | Ca2+ signal (% of Cmp 1a) [17] | Ca2+ signal (% of Cmp 1a) [18] | Ca2+ signal (% of Cmp 1a) [19] | Ca2+ signal (% of Cmp 1a) [20] | other results |
| --- | --- | --- | --- | --- | --- | --- | --- | --- | --- | --- | --- | --- | --- | --- | --- | --- | --- | --- | --- | --- | --- |
| CC(NC(=O)CNC(=O)c1cccc(Cl)c1)c1ccccc1 (stereo not shown) [JNJ-63533054, reference compound] | 15.8 | 119 ± 6 | 100 % of Cmp 1a | 91 % of Cmp 1a and 96 % of Cmp 1a and 95 % of Cmp 1a | 91 % of Cmp 1a and 78 % of Cmp 1a and 84 % of Cmp 1a | 68 % of Cmp 1a and 62 % of Cmp 1a and 69 % of Cmp 1a | 36 % of Cmp 1a and 26 % of Cmp 1a and 32 % of Cmp 1a | 25 % of Cmp 1a and 21 % of Cmp 1a and 8 % of Cmp 1a | 11 % of Cmp 1a and 1.8 % of Cmp 1a and -4.36 % of Cmp 1a | 0 % of Cmp 1a | 0 % of Cmp 1a | – | – | – | – | – | – | – | – | – | Emax (Supplementary Table 4, read-out: Emax (%), Ca2+ mobilization): 100 ± 2%; EC50 (Supplementary Table 4, read-out: pEC50, Ca2+ mobilization (converted)): 63.1 nM; Ca2+ signal (% of Cmp 1a) (log [Compound] M -8.5, individual replicates, listed as JNJ (S)): 33 % of Cmp 1a and 17 % of Cmp 1a and 31 % of Cmp 1a; Ca2+ signal (% of Cmp 1a) (log [Compound] M -9.0, individual replicates, listed as JNJ (S)): 12 % of Cmp 1a and 6 % of Cmp 1a and 21 % of Cmp 1a; Ca2+ signal (% of Cmp 1a) (log [Compound] M = -5.5, individual replicate columns): 100 % of Cmp 1a; Ca2+ signal (% of Cmp 1a) (log [Compound] M = -6.0, individual replicate columns): 96 % of Cmp 1a and 95 % of Cmp 1a and 91 % of Cmp 1a; Ca2+ signal (% of Cmp 1a) (log [Compound] M = -6.5, individual replicate columns): 78 % of Cmp 1a and 84 % of Cmp 1a and 91 % of Cmp 1a; Ca2+ signal (% of Cmp 1a) (log [Compound] M = -7.0, individual replicate columns): 62 % of Cmp 1a and 69 % of Cmp 1a and 68 % of Cmp 1a; Ca2+ signal (% of Cmp 1a) (log [Compound] M = -7.5, individual replicate columns): 26 % of Cmp 1a and 32 % of Cmp 1a and 36 % of Cmp 1a; Ca2+ signal (% of Cmp 1a) (log [Compound] M = -8.0, individual replicate columns): 21 % of Cmp 1a and 8 % of Cmp 1a and 25 % of Cmp 1a; Ca2+ signal (% of Cmp 1a) (log [Compound] M = -8.5, individual replicate columns): 1.8 % of Cmp 1a and -4.36 % of Cmp 1a and 11 % of Cmp 1a; Ca2+ signal (% of Cmp 1a) (log [Compound] M = -9.0, individual replicate columns): 0 % of Cmp 1a; Ca2+ signal (% of Cmp 1a) (log [compound] M -4.5, individual replicates, listed as JNJ (S)): 119 % of Cmp 1a and 120 % of Cmp 1a and 108 % of Cmp 1a; Ca2+ signal (% of Cmp 1a) (log [compound] M -5.0, individual replicates, listed as JNJ (S)): 106 % of Cmp 1a and 110 % of Cmp 1a and 122 % of Cmp 1a; Ca2+ signal (% of Cmp 1a) (log [compound] M -5.5, individual replicates, listed as JNJ (S)): 100 % of Cmp 1a and 103 % of Cmp 1a and 143 % of Cmp 1a; Ca2+ signal (% of Cmp 1a) (log [compound] M -6.0, individual replicates, listed as JNJ (S)): 91 % of Cmp 1a and 107 % of Cmp 1a and 141 % of Cmp 1a; Ca2+ signal (% of Cmp 1a) (log [compound] M -6.5, individual replicates, listed as JNJ (S)): 93 % of Cmp 1a and 118 % of Cmp 1a and 122 % of Cmp 1a; Ca2+ signal (% of Cmp 1a) (log [compound] M -7.0, individual replicates, listed as JNJ (S)): 76 % of Cmp 1a and 120 % of Cmp 1a and 95 % of Cmp 1a; Ca2+ signal (% of Cmp 1a) (log [compound] M -7.5, individual replicates, listed as JNJ (S)): 65 % of Cmp 1a and 92 % of Cmp 1a and 71 % of Cmp 1a; Ca2+ signal (% of Cmp 1a) (log [compound] M -8.0, individual replicates, listed as JNJ (S)): 46 % of Cmp 1a and 57 % of Cmp 1a and 54 % of Cmp 1a |
| Cc1cscc1-c1nc(CC(=O)N[C@H](C)c2ccccc2)no1 [1.1(R)] | 316 | 112 ± 1 | – | – | – | – | – | – | – | – | 0 % of Cmp 1a | 12 % of Cmp 1a and 7 % of Cmp 1a and 3.33 % of Cmp 1a | 9 % of Cmp 1a and 0.333 % of Cmp 1a and -1.33 % of Cmp 1a | 101 % of Cmp 1a and 112 % of Cmp 1a and 116 % of Cmp 1a | 100 % of Cmp 1a and 104 % of Cmp 1a and 97 % of Cmp 1a | 97 % of Cmp 1a and 88 % of Cmp 1a and 90 % of Cmp 1a | 74 % of Cmp 1a and 79 % of Cmp 1a and 77 % of Cmp 1a | 50 % of Cmp 1a and 51 % of Cmp 1a and 65 % of Cmp 1a | 32 % of Cmp 1a and 25 % of Cmp 1a and 37 % of Cmp 1a | 15 % of Cmp 1a and 13 % of Cmp 1a and 16 % of Cmp 1a | Ca2+ signal (% of Cmp 1a) [21]: 9 % of Cmp 1a and 4.67 % of Cmp 1a and 8 % of Cmp 1a |
| COc1cc(OC)cc(C(=O)NNC(=O)Nc2cccc3ccccc23)c1 [Lundbeck Cmp 1a, reference compound] | 158 | – | 96 % of Cmp 1a and 113 % of Cmp 1a and 100 % of Cmp 1a and 95 % of Cmp 1a and 84 % of Cmp 1a and 88 % of Cmp 1a and 114 % of Cmp 1a and 103 % of Cmp 1a and 108 % of Cmp 1a and 126 % of Cmp 1a | 81 % of Cmp 1a and 96 % of Cmp 1a and 87 % of Cmp 1a and 69 % of Cmp 1a and 82 % of Cmp 1a and 73 % of Cmp 1a and 84 % of Cmp 1a and 75 % of Cmp 1a and 88 % of Cmp 1a and 109 % of Cmp 1a | 63 % of Cmp 1a and 62 % of Cmp 1a and 65 % of Cmp 1a and 67 % of Cmp 1a and 53 % of Cmp 1a and 60 % of Cmp 1a and 76 % of Cmp 1a and 64 % of Cmp 1a and 68 % of Cmp 1a | 38 % of Cmp 1a (2×) and 39 % of Cmp 1a | 20 % of Cmp 1a and 15 % of Cmp 1a and 23 % of Cmp 1a and 11 % of Cmp 1a and 2.33 % of Cmp 1a and 22 % of Cmp 1a and 19 % of Cmp 1a and 29 % of Cmp 1a and 16 % of Cmp 1a and 35 % of Cmp 1a | 1.56 % of Cmp 1a and 5 % of Cmp 1a and 17 % of Cmp 1a and -13 % of Cmp 1a and 8 % of Cmp 1a and 12 % of Cmp 1a and 9 % of Cmp 1a and 3 % of Cmp 1a and 6.33 % of Cmp 1a | -0.447 % of Cmp 1a and 1.52 % of Cmp 1a and 10 % of Cmp 1a and -20 % of Cmp 1a and 2.33 % of Cmp 1a and 11 % of Cmp 1a and 4.67 % of Cmp 1a and -2 % of Cmp 1a and -1 % of Cmp 1a and 5 % of Cmp 1a and 23 % of Cmp 1a | -1.54 % of Cmp 1a and 0.497 % of Cmp 1a and 16 % of Cmp 1a and -12 % of Cmp 1a and 8 % of Cmp 1a and 9 % of Cmp 1a and 3.33 % of Cmp 1a and 13 % of Cmp 1a and 11 % of Cmp 1a | – | – | – | – | – | – | – | – | – | – | EC50 (GPR139-CHOk1, read-out: EC50, Ca2+ mobilization): 200 nM; Emax (Supplementary Table 2, mean ± SEM, read-out: Emax (%) Ca2+): 108 ± 3%; Ca2+ signal (% of Cmp 1a) (log [Compound] M -4.5, replicate experiments): 104 % of Cmp 1a and 101 % of Cmp 1a and 98 % of Cmp 1a and 116 % of Cmp 1a and 117 % of Cmp 1a and 88 % of Cmp 1a and 112 % of Cmp 1a and 95 % of Cmp 1a and 103 % of Cmp 1a and 94 % of Cmp 1a; Ca2+ signal (% of Cmp 1a) (log [Compound] M -5.0, replicate experiments): 104 % of Cmp 1a and 115 % of Cmp 1a and 107 % of Cmp 1a and 118 % of Cmp 1a and 110 % of Cmp 1a and 88 % of Cmp 1a and 112 % of Cmp 1a and 119 % of Cmp 1a |
| C[C@@H](NC(=O)CNC(=O)c1cccc(Cl)c1)c1ccccc1 [JNJ(R), reference compound] | 3160 | 99 ± 5 | – | – | – | – | – | – | – | – | 0 % of Cmp 1a | -4.33 % of Cmp 1a and 7 % of Cmp 1a and -3.33 % of Cmp 1a | -1.33 % of Cmp 1a and 6 % of Cmp 1a and -7 % of Cmp 1a | 84 % of Cmp 1a and 100 % of Cmp 1a and 82 % of Cmp 1a | 66 % of Cmp 1a and 88 % of Cmp 1a and 60 % of Cmp 1a | 49 % of Cmp 1a and 72 % of Cmp 1a and 33 % of Cmp 1a | 28 % of Cmp 1a and 43 % of Cmp 1a and 16 % of Cmp 1a | 13 % of Cmp 1a and 14 % of Cmp 1a and -2 % of Cmp 1a | 4.33 % of Cmp 1a and 9 % of Cmp 1a and -10 % of Cmp 1a | 11 % of Cmp 1a and 3.67 % of Cmp 1a and -10 % of Cmp 1a | Ca2+ signal (% of Cmp 1a) [21]: 5.33 % of Cmp 1a (2×) and -13 % of Cmp 1a |
